Patent publication US20140018372A1, “CRYSTALLINE FORM OF A INDOLINONE DERIVATIVE AND ITS USE” (BOEHRINGER INGELHEIM INTERNATIONAL GMBH, priority 2012, published 2014)
“Also recorded” adds a separate entry of the source.

What was measured:
[1] = system: phospho-ERK in SK-MEL-28 cells; assay: Fast Active Cell-Based ELISA (FACE) SK-MEL-28 p-ERK; details: Homo sapiens, SK-MEL 28 melanoma cells, read-out: EC50 for reduction of phospho-ERK
Excerpt: Fast Active Cell-Based ELISA (FACE) SK-MEL-28 p-ERK:
The supernatant is removed.

H460 cells = assay: Polyploidy by DNA content analyses (Cellomics ArrayScan); type: cell-based, human; details: 7 nM, 42 h exposure
[2] = system: tumors derived from melanoma cell line G361^V600V/E; assay: Human melanoma xenograft G361 in nude mice; type: in vivo; details: oral qd, Compound A 10 mg/kg, vemurafenib 120 mg/kg; for TGI@d23 [%]: day 23; for CR@d30 [x/7] / PR@d30 [x/7]: day 30
Experimental: Athymic female BomTac:NMRI-Foxn1^nu mice about six weeks of age are allowed to adjust to ambient conditions for at least five days before they are used for experiments. The animals are housed under standardized conditions in groups of 7-10 in Macrolon® type III cages. Standardized diet (PROVIMI KLIBA) and autoclaved tap water are provided ad libitum. To establish subcutaneous tumors, cells are harvested by trypsinization, centrifuged, washed and resuspended in ice-cold PBS+5% FCS. 100 μL of cell suspension containing, depending on cell type, about 10^6 to 10^7 cells are injected subcutaneously into the right flank of a nude mouse (one site per mouse). Mice are randomly distributed between the treatment and the vehicle control group (12 days after cell injection) when tumors are well established and have reached volumes of 40-120 mm^3
The tumor diameter is measured three times a week (Monday, Wednesday and Friday) with a caliper. The volume of each tumor (in mm^3) is calculated according to the formula “tumor volume=length×diameter^2×π/6”. To monitor side effects of treatment, mice are inspected daily for abnormalities and body weight is determined three times a week (e.g. Monday, Wednesday and Friday). Animals are sacrificed at the end of the study about ten weeks after start of treatment. Animals with necrotic tumors or tumor sizes exceeding 1500 mm^3 are sacrificed early during the studies for ethical reasons.
For a quick overview of possible treatment effects the median of the tumor volume of each treatment group T is related to the median of the tumor volume of control C. Tumor growth inhibition (TGI) from day 1 until day d is calculated as: […]
wherein • C1 and T1 represent the median tumor volumes in the control and treatment groups at start of the experiment at day 1 and • Cd and Td represent the median tumor volumes in the control and treatment groups at end of the experiment at day d.
Mice with tumors derived from melanoma cell line G361^V600V/E are treated orally with the B-Raf inhibitor vemurafenib qd at doses of 120 mg/kg or with 3-{3-[1-(4-Dimethylaminomethyl-phenylamino)-1-phenyl-meth-(Z)-ylidene]-2-oxo-2,3-dihydro-1H-indol-6-yl}-propynoic acid ethylamide (Compound A) qd at doses of 10 mg/kg or with the vehicle only. In addition, mice are treated orally with B-Raf inhibitor vemurafenib qd at doses of 120 mg/kg in combination with Compound A qd at doses of 10 mg/kg.

[3] = system: phospho-histone H3 in NCI-H460 cells; assay: Analysis of histone H3 phosphorylation in NCI-H460 cells (Cellomics); type: cell-based; details: Homo sapiens, synchronized H460 NSCLC cells, 1 h treatment, molecular phosphorylation assay, read-out: EC50 for reduction of phospho-histone H3
Excerpt: This CDK1 inhibitor arrests cells in G2. […] The final DMSO concentration was 0.1%.

Solution state stability = type: physicochemical
Experimental: In solution state, the compound of formula (I) according to the invention show no or only minor sensitivity towards hydrolysis at pH 2.2-10 (solution state stability, e.g. 0.1M HCl, 8 h @ 37° C.: <1% decomposition; Mc Ilvaine buffer 7.4, 3d @ 60° C.: <1,5% decomposition).

[4] = Water sorption isotherms (DVS); type: physicochemical; details: sorption isotherms at 25° C.
Experimental: To study the hygroscopical behaviour of this material, sorption isotherms are registered, e.g. on a DVS-1 water sorption monitor from Surface Measurement Systems. Adsorption and desorption isotherms are performed at 25° C. with 10% r.h. step intervals ranging from 10% r.h. up to 90% r.h.

[5] = Solid state chemical stability; type: physicochemical
Experimental: The crystalline free base form of 3-{3-[1-(4-Dimethylaminomethyl-phenylamino)-1-phenyl-meth-(Z)-ylidene]-2-oxo-2,3-dihydro-1H-indol-6-yl}-propynoic acid ethylamide according to this invention has further added properties, such as e.g. no sensitivity towards heat, humidity and photolysis in solid state (solid state chemical stability, e.g. 3d @ 70° C. and >90% r.h.: <1% decomposition; 3d @ 105° C.: <1.5% decomposition; 24 h under UV-radiation @ 250 W/m^2: <1.5% decomposition).

Row | SMILES | EC50 [1] [nM] | polyploid cells (H460 cells) [%] | mortality [x/7] [2] [x/7] | TGI@d23 [%] [2] [%] | CR@d30 [x/7] [2] [x/7] | PR@d30 [x/7] [2] [x/7] | EC50 [3] [nM] | decomposition, solution state (Solution state stability; 0.1M HCl, 8 h @ 37° C.) [%] | decomposition, solution state (Solution state stability; Mc Ilvaine buffer 7.4, 3d @ 60° C.) | hygroscopical behaviour [4] | decomposition, solid state ([5]; 24 h under UV-radiation @ 250 W/m^2) [%] | decomposition, solid state ([5]; 3d @ 70° C. and >90% r.h.) [%] | decomposition, solid state ([5]; 3d @ 105° C.) [%]
1 | CCNC(=O)C#Cc1ccc2c(c1)NC(=O)/C2=C(\Nc1ccc(CN(C)C)cc1)c1ccccc1 [Compound A, 3-{3-[1-(4-Dimethylaminomethyl-phenylamino)-1-phenyl-meth-(Z)-ylidene]-2-oxo-2,3-dihydro-1H-indol-6-yl}-propynoic acid ethylamide] | 59 | 81 | 1 | 45 | 0 | 0 | 44 | < 1 | < 1,5% | – | – | – | –
2 | CCCS(=O)(=O)Nc1ccc(F)c(C(=O)c2c[nH]c3ncc(-c4ccc(Cl)cc4)cc23)c1F [vemurafenib, reference compound] | – | – | 0 | 44 | 0 | 0 | – | – | – | – | – | – | –
3 | CCNC(=O)C#Cc1ccc2c(c1)NC(=O)/C2=C(\Nc1ccc(CN(C)C)cc1)c1ccccc1 [3-{3-[1-(4-Dimethylaminomethyl-phenylamino)-1-phenyl-meth-(Z)-ylidene]-2-oxo-2,3-dihydro-1H-indol-6-yl}-propynoic acid ethylamide] | – | – | – | – | – | – | – | – | – | not hygroscopic; also recorded: non-hygroscopic | < 1.5 | < 1 | < 1.5
